Measurements: patent publication US20250074901A1, “NOVEL HETEROARYL COMPOUNDS” (ICAGEN, LLC, priority 2021, published 2025)

Molecular target: T1, Kv7.2 (Homo sapiens, UniProt O43526)
T1 construct: expressed in transfected cells
Assay: Activation of Kv7.2 (in vitro assay, concentration response curve)
Type: cell-based
Conditions: for Emax: Kv7.2 activation max %; for EC50: activation of Kv7.2
Experimental: The term “EC50” in this application is defined as: the agonistic effect of a compound can be determined by testing the compound in an in vitro assay as described herein, whereby the effect of the compound is measured across a range of compound concentrations. The resulting data is plotted as a concentration response curve, which typically follows a sigmoidal function, whereby the concentration of the compound is plotted on the x axis and the response (agonistic effect) is plotted on the y axis. The term “EC50” is the “half maximal effective concentration” and denotes the concentration of a particular compound required to obtain 50% of the maximum response (Emax) which is observed for that compound in the given in vitro assay.

Row | Compound | Emax [%] | EC50 [µM]
1 | O=C(NCc1ccnc(-n2cccn2)c1)N[C@@H]1C[C@H]2CC[C@@H]1C2 (racemic) [Example 7, 1-[(2-pyrazol-1-ylpyridin-4-yl)methyl]-3-[rac-(1R,2R,4S)-2-bicyclo[2.2.1]heptanyl]urea] | 101 | 0.59
2 | O=C(NCc1ccnc(OC(F)F)c1)N[C@@H]1C[C@H]2CC[C@@H]1C2 (racemic) [Example 12, 1-[[2-(difluoromethoxy)pyridin-4-yl]methyl]-3-[rac-(1R,2R,4S)-2-bicyclo[2.2.1]heptanyl]urea] | 81 | 0.09
3 | COc1cc(CNC(=O)N[C@@H]2C[C@H]3CC[C@@H]2C3)ccn1 (racemic) [Example 14, 1-[(2-methoxypyridin-4-yl)methyl]-3-[rac-(1R,2R,4S)-2-bicyclo[2.2.1]heptanyl]urea] | 86 | 1.84
4 | O=C(NCc1ccnc(-n2cnc(C(F)(F)F)c2)c1)N[C@H]1C[C@@H]2CC[C@H]1C2 (racemic) [Example 26, 1-[rac-(1R,2R,4S)-2-bicyclo[2.2.1]heptanyl]-3-[[2-[4-(trifluoromethyl)imidazol-1-yl]pyridin-4-yl]methyl]urea] | 65 | 0.38
5 | O=C(NCc1ccnc(Br)c1)N[C@H]1C[C@@H]2CC[C@H]1C2 (racemic) [Example 27, 1-[(2-bromopyridin-4-yl)methyl]-3-[rac-(1R,2R,4S)-2-bicyclo[2.2.1]heptanyl]urea] | 76 | 2.69
6 | O=C(NCc1ccnc(-c2cnco2)c1)N[C@H]1C[C@@H]2CC[C@H]1C2 (racemic) [Example 28, 1-[[2-(1,3-oxazol-5-yl)pyridin-4-yl]methyl]-3-[rac-(1R,2R,4S)-2-bicyclo[2.2.1]heptanyl]urea] | 76 | 8.28
7 | CC(F)(F)c1cc(CNC(=O)N[C@H]2C[C@@H]3CC[C@H]2C3)ccn1 (racemic) [Example 33, 1-[[2-(1,1-difluoroethyl)pyridin-4-yl]methyl]-3-[rac-(1R,2R,4S)-2-bicyclo[2.2.1]heptanyl]urea] | 80 | 0.26
8 | N#Cc1cc(CNC(=O)N[C@H]2C[C@@H]3CC[C@H]2C3)ccn1 (racemic) [Example 34, 1-[(2-cyanopyridin-4-yl)methyl]-3-[rac-(1R,2R,4S)-2-bicyclo[2.2.1]heptanyl]urea] | 49 | 2.77
9 | O=C(NCc1ccnc(C(F)F)c1)N[C@H]1C[C@@H]2CC[C@H]1C2 (racemic) [Example 35, 1-[[2-(difluoromethyl)pyridin-4-yl]methyl]-3-[rac-(1R,2R,4S)-2-bicyclo[2.2.1]heptanyl]urea] | 67 | 1.14
10 | O=C(NCc1ccnc(C(F)(F)F)c1)N[C@H]1C[C@@H]2CC[C@H]1C2 (racemic) [Example 36, 1-[rac-(1R,2R,4S)-2-bicyclo[2.2.1]heptanyl]-3-[[2-(trifluoromethyl)pyridin-4-yl]methyl]urea] | 64 | 0.54
11 | O=C(NCc1ccnc(OC(F)F)c1)N[C@@H]1CC[C@H](C(F)(F)F)C1 (racemic) [Example 59, 1-[[2-(difluoromethoxy)pyridin-4-yl]methyl]-3-[rac-(1R,3S)-3-(trifluoromethyl)cyclopentyl]urea] | 65 | 0.11
12 | O=C(NCc1ccnc(OC(F)F)c1)NC1CCC2C1C2(F)F (racemic) [Example 73, 1-[[2-(difluoromethoxy)pyridin-4-yl]methyl]-3-[rac-(1R,5R)-6,6-difluoro-2-bicyclo[3.1.0]hexanyl]urea] | 49 | 0.25
13 | O=C(NCc1ccnc(OC(F)F)c1)NC1CC2C(C1)C2(F)F (racemic) [Example 74, 1-[[2-(difluoromethoxy)pyridin-4-yl]methyl]-3-[rac-(1R,5S)-6,6-difluoro-3-bicyclo[3.1.0]hexanyl]urea] | 58 | 0.17
14 | O=C(NCc1ccnc(OCC(F)(F)F)c1)N[C@H]1CC[C@@H](C(F)(F)F)C1 (racemic) [Example 79, 1-[rac-(1R,3S)-3-(trifluoromethyl)cyclopentyl]-3-[[2-(2,2,2-trifluoroethoxy)pyridin-4-yl]methyl]urea] | 55 | 0.1
15 | CC1(C)C[C@H](NC(=O)NCc2ccnc(OC(F)F)c2)[C@@H]1O (racemic) [Example 81, 1-[[2-(difluoromethoxy)pyridin-4-yl]methyl]-3-[rac-(1R,2S)-2-hydroxy-3,3-dimethylcyclobutyl]urea] | 73 | 1.36
16 | CC1(C)C[C@H](NC(=O)NCc2ccnc(-n3cnc(C(F)(F)F)c3)c2)[C@@H]1O (racemic) [Example 99, 1-[rac-(1R,2S)-2-hydroxy-3,3-dimethylcyclobutyl]-3-[[2-[4-(trifluoromethyl)imidazol-1-yl]pyridin-4-yl]methyl]urea] | 44 | 6.51
17 | CC1(C)CC[C@H](O)[C@@H](NC(=O)NCc2ccnc(OC(F)F)c2)C1 (racemic) [Example 101, 1-[[2-(difluoromethoxy)pyridin-4-yl]methyl]-3-[rac-(1R,2R)-2-hydroxy-5,5-dimethylcyclohexyl]urea] | 72 | 1.2
18 | O=C(NCc1ccnc(OC(F)F)c1)N[C@@H]1C[C@H]2CC[C@@H]1O2 (racemic) [Example 102, 1-[[2-(difluoromethoxy)pyridin-4-yl]methyl]-3-[rac-(1R,2S,4S)-7-oxabicyclo[2.2.1]heptan-2-yl]urea] | 71 | 5.86
19 | O=C(NCc1ccnc(OC(F)F)c1)N[C@H]1C[C@@H]2C[C@H]1[C@H](O)C2 (racemic) [Example 107, 1-[[2-(difluoromethoxy)pyridin-4-yl]methyl]-3-[rac-(1R,2S,4S,6R)-6-hydroxy-2-bicyclo[2.2.1]heptanyl]urea] | 95 | 1.7
20 | O=C(NCc1ccnc(OC(F)F)c1)N[C@H]1[C@@H](O)[C@H]2CCC[C@H]21 (racemic) [Example 111, 1-[[2-(difluoromethoxy)pyridin-4-yl]methyl]-3-[rac-(1R,5S,6S,7R)-7-hydroxy-6-bicyclo[3.2.0]heptanyl]urea] | 63 | 2.78
21 | O=C(NCc1ccnc(OC(F)F)c1)N[C@H]1C[C@H]2CCC[C@@]2(CO)C1 (racemic) [Example 112, 1-[[2-(difluoromethoxy)pyridin-4-yl]methyl]-3-[rac-(2R,3aS,6aS)-6a-(hydroxymethyl)-2,3,3a,4,5,6-hexahydro-1H-pentalen-2-yl]urea] | 49 | 4.91
22 | O=C(NCc1ccnc(OC(F)F)c1)N[C@H]1CCC[C@H]1O (racemic) [Example 118, 1-[[2-(difluoromethoxy)pyridin-4-yl]methyl]-3-[rac-(1R,2S)-2-hydroxycyclopentyl]urea] | 63 | 7.87
23 | O=C(NCc1ccnc(OC(F)F)c1)NC[C@@]12CCC[C@@H]1CCO2 (racemic) [Example 120, 1-[[2-(difluoromethoxy)pyridin-4-yl]methyl]-3-[[rac-(3aR,6aR)-2,3,3a,4,5,6-hexahydrocyclopenta[b]furan-6a-yl]methyl]urea] | 53 | 3.45
24 | O=C(NCc1ccnc(OC(F)F)c1)N[C@@H]1CC[C@@H]1F (racemic) [Example 123, 1-[[2-(difluoromethoxy)pyridin-4-yl]methyl]-3-[rac-(1R,2S)-2-fluorocyclobutyl]urea] | 40 | 4.16
